# Measurements as given in patent US12553889B2, “Small molecules targeting the intrinsically disordered structural ensemble of α-synuclein protect against diverse α-synuclein mediated dysfunctions” (The Regents of the University of California, priority 2019, dated 2026).
# “Also recorded” adds a separate entry of the source.
# Tests used:
# [1] = target: T1, αSyn (Homo sapiens, UniProt P37840); assay: αSyn fibrillization assay (Thioflavin T fluorescence); type: biochemical; set-up: made in house; host or cells: E. coli BL21(DE3), pET-21d; details: for impact on αSyn fibrillization (thioflavin fluorescence signal): compound at 300 μM, 70 μM αSyn, vs 0.5% DMSO control
# Experimental: (§1) Fibrillization assays. Prior to each aggregation assay, purified αSyn at 5 mg/mL was treated with 6M guanidine and dialyzed 36 hours in a 3500 MW cutoff Slide-A-lyzer with three changes of 20 mM sodium phosphate and 100 mM NaCl pH 7.4 buffer. αSyn was centrifuged at 130,000 g for 40 minutes in a Beckman Ultracentrifuge to remove seeding species and supernatant used for assays. For initial testing, 60 mM compound in DMSO was diluted to 300 μM in 0.5% DMSO and controls contained equivalent DMSO concentrations. Assay samples contained 20 μM Thioflavin T, filtered through a 0.45 μm Acrodisc filter prior to each assay, 70 μM αSyn in 20 mM sodium phosphate and 100 mM NaCl pH 7.4. One teflon bead, (0.125″ PTFE, Grade 2 polished) was placed in each well of a 96 well black with clear bottom assay plate (Corning) in a total volume of 500 μL. The plate was sealed with Mylar and parafilm, placed at 37° C. in a Tecan F200Pro Plate Reader and shaken at an amplitude of 6 mm for 120 hours continuously except for a brief time during reading of the plate. Thioflavin T fluorescence was detected by excitation at 440 nm and reading emissions at 485 nm each 60 minutes throughout the assay. To generate αSyn seeds for the seeding assays, αSyn at 10 mg/mL was incubated with stirring at 43° C. for 24 hours followed by exhaustive sonication. 1% (by mass) of seeds were added to the fibrillization assay. Samples were plated in quadruplicate, and the replicates averaged for each experiment for plotted data. Data were analyzed in Excel using XL-fit sigmoidal model #600 and when normalized, comparing fluorescence values at 50 hours for compounds as a percentage of DMSO control.
# α-Syn for the Fibrillization assay. Wildtype human αSyn was produced from a pET-21d plasmid (Millipore, Burlington, MA) in E. coli BL21(DE3) cells induced by addition of 1 mM […] and incubated at 16° C. overnight. Cells were harvested by centrifugation at 4,000×g for 10 minutes and stored at −80° C. Frozen cells expressing αSyn protein were resuspended in 50 mM Tris, pH 7.5, 1 mM TCEP, 1 mM EDTA, and 1 mM L-Methionine and lysed using a microfluidizer. Lysate was centrifuged at 7000×g for 0.5 hours at 21° C. The supernatant was boiled in a water bath for 15 minutes, cooled on ice and centrifuged at 45,000 g for 30 min. The supernatant was filtered through a 0.2 μm Corning filter and subjected to ion exchange chromatography using a Capto ImpRes Q (GE Healthcare, Upssala, Sweden) anion exchange (IEX) column at ambient temperature. The column was eluted with a gradient of 100 column volumes from 0 to 1M NaCl using an AKTA Explorer 100 Liquid Chromatography System (GE Healthcare, Uppsala, Sweden). Pure αSyn fractions were desalted to 50 mM KPO4, pH 7.5 and 50 mM NaCl using PD-10 columns (GE Healthcare, Chicago, IL) and concentrated to 5 mg/mL or 10 mg/ml (3K MWCO, Amicon Ultra, Millipore, Burlington, MA).
# Statistical Analysis of compound activity in Fibrillization assays. For the analyses of compound activity in the αSyn fibrillization assay, the relative fluorescence unit (RFU) data obtained from compounds were compared to those of DMSO, to identify those that are statistically different from DMSO at various time points. Each experiment contained 4 replicates of each compound and of DMSO control. […] A repeated measures analysis of variance was performed on logarithmic transformed data using a linear mixed effects model which included Compound, Time, Replicate (Compound) and Compound*Time. The covariance structure across time that minimized the corrected Akaike Information Criterion (AICC) was used and the Kenward and Roger method was used to determine the appropriate degrees of freedom. Each compound mean was compared to the DMSO mean using Bonferroni multiplicity adjusted t-tests. Statistical analyses were conducted using the MIXED procedure in SAS 9.1 (SAS Institute Inc. Cary, NC, USA). Statistical significance refers to p-value<0.05.
# [2] = tested on: αSyn; assay: Western analyses of αSyn levels in H4 cells; type: cell-based, human; details: H4 cells transiently transfected with split Gaussia luciferase tagged αSyn, 150 μM
# Experimental: All materials were purchased from Invitrogen (Carlsbad, CA) unless stated otherwise. Cell from a 6 well dish were washed twice with PBS and lysed with 250 μl of RIPA Lysis buffer with protease and phosphatase inhibitors (Sigma, St. Louis, MO). Lysates were incubated on a shaker for 15 minutes at 4° C. and spun down for 15 min. at 10,000 g. Total protein concentrations were determined by BCA assay (Thermo Fisher, Waltham, MA). 1 ml of media was collected and incubated with protease and phosphatase inhibitors and 50 μl of Ni-agarose beads to collect the His-tagged αSyn (Qiagen, Hilden, Germany) for 2 hrs at […]. Beads were centrifuged and washed in PBS. Cell samples and pelleted beads from the media were placed into Bolt LDS (lithium dodecyl sulfate) sample buffer with 20% β-mercaptoethanol and boiled for 15 min. 5-15 μg of sample (cells) and an equivalent fraction of media were electrophoresed on Bolt 4-12% Bis-Tris Plus gels with Bolt MES SDS running buffer and the Precision Plus Protein Dual Color Standards (Biorad, Hercules, CA) molecular weight markers. After electrophoresis, the separated proteins were transferred onto a 0.2 μm pore size PVDF membrane for 90 minutes at 400 mA and 4° C. in Bolt Transfer Buffer using BioRad midi transfer chambers. […] Membranes were scanned and quantitated using the Odyssey CLx Imaging System (LI-COR, Lincoln, NE). […]
# [3] = target: T1, αSyn; assay: seeded αSyn fibrillization assay (αSyn seeds added at initiation); type: biochemical; set-up: made in house; host or cells: E. coli BL21(DE3), pET-21d
# Experimental: as §1, with “To generate αSyn seeds for the seeding assays, αSyn at 10 mg/mL was incubated with stirring at 43° C. for 24 hours followed by exhaustive sonication. 1% (by mass) of seeds were added to the fibrillization assay. Samples were plated in quadruplicate, and the replicates averaged for each experiment for plotted data.” left out
SMILES,impact on αSyn fibrillization (thioflavin fluorescence signal) [1],impact on cellular αSyn protein levels [2],inhibition of aggregation when used as control ([1]; over 30 synuclein fibrillization experiments),impact on seeded fibrillization ([3]; preformed αSyn fibrils/protofibrils added at initiation),"time at which activity is first seen in seeded fibrillization ([3]; seeded fibrillization, time in the incubation) [h]"
"Cc1c(-c2csc(NC(C(N)=O)C3CCNCC3)n2)sc2ccccc12 (stereo not shown) [Compound 573437, 2-((4-(3-methylbenzo[b]thiophen-2-yl)thiazol-2-yl)amino)-2-(piperidin-4-yl)acetamide]",missed by the more variable αSyn fibrillization assay,,,,
"CNC(=O)CN(C(=O)Cc1noc2ccccc12)C(C)c1ccc(Cl)cc1 (stereo not shown) [Compound 582032, 2-(benzo[d]isoxazol-3-yl)-N-(1-(4-chlorophenyl)ethyl)-N-(2-(methylamino)-2-oxoethyl)acetamide]",inhibit fibrillization; also recorded: impair fibrillization,,,,
"CNC(=O)c1cc(O)ccc1N [Compound 576755, 2-amino-5-hydroxy-N-methylbenzamide]",inhibit fibrillization; also recorded: impair fibrillization,no impact on αSyn levels,robust inhibition of aggregation in all assays,blocks fibrillization; also recorded: anti-aggregation activity,≤ 2
